Patent US5843886A, “Method of treating or preventing Type 1 diabetes by oral administration of insulin” (Autoimmune, Inc., priority 1995, dated 1998)
Values joined by “and” are separate entries in the source; they are usually repeats but may differ in a detail not shown here. Identical values can stand only once. “Also recorded” adds a separate entry of the source.

Tests used:
Type in all cases: in vivo, mouse
NOD mice [1] = experiment: Spontaneous diabetes in NOD mice after oral feeding
Description: NOD (non-obese diabetic mice) were obtained from Taconic Laboratories (Germantown, Mass.) at 4 weeks of age. There were a total of 30 animals in each of the groups mentioned below at the beginning of the experiment. At 41/2 weeks of age, animals were orally administered Porcine insulin (Novo Laboratories, Danbury, Conn.). Each animal received two treatments orally twice a week until 9 weeks of age. The mice were fed either saline (control) or 10 micrograms, 100 micrograms, or 1 milligram of Porcine insulin. The animals were fed (gavaged) with an 18 gauge ball-point needle (Popper and Sons, Inc., New Hyde Park, N.Y.). Beginning at 10 weeks the animals were then fed once a week for a total of 33 weeks. Beginning at 12 weeks the urine was tested weekly for the presence of glucose using Glucosuria test tape (Eli Lilly, Indianapolis, Ind.). If an animal tested 3+ or higher on the glucose urine test, a serum sample was taken and blood glucose measured using a glucose analyzer (Beckman). If the blood glucose was 220 or higher, the animals were classified as diabetic and then sacrificed. An identical experiment to Example 1 was performed in which NOD mice (14-17 per group) were fed one homogenized pancreas derived from Lewis rats in 0.5 mls PBS. […] Nonetheless, the effect is not as dramatic and complete as that seen in the animals fed insulin.

NOD mice [2] = experiment: Insulitis in insulin-fed NOD mice (preliminary experiments, data not shown); settings: fed 1 mg, compared with PBS-fed NOD mice
Description: Therefore, oral administration of insulin to NOD mice appeared to be affecting the infiltration of immune system cells into the pancreas and thus halting disease progression by preserving beta cell function.

NOD mice [3] = experiment: Treatment of initial stages of diabetes in hyperglycemic NOD mice (Example 5); settings: 0 to 1 mg, oral and aerosol, start at weeks 12-20 of age
Experimental: Insulin (0 to 1 mg as in Examples 1 and 2) will be administered to NOD mice which are suffering from hyperglycemia in an oral and aerosol form. The treatments will begin by weeks 12-20 of age, by which the serum glucose levels are at hyperglycemic concentrations in a certain percentage of animals prior to onset of diabetes.

NOD mice [4] = experiment: Aerosol administration of insulin on diabetes in NOD mice (Example 4); settings: 0 to 1 mg in aerosol form by nebulizer
Experimental: Insulin (0 to 1 mg as in Examples 1 and 2) will be administered to NOD mice as described above in Examples 1 and 2 except in aerosol form by nebulizer.

NOD mice [5] = experiment: Glucose post oral insulin in fasting 7 week NOD mice; settings: for blood glucose after feeding: measured over 24 hours
Experimental: In order to determine whether any endocrinologic (i.e. direct lowering of blood sugar) effects occurred following the feeding of insulin, 7 week old NOD mice (5 mice per group) were fed 1 mg of porcine insulin or 1 mg of myelin basic protein (obtained from Pel Freez, Rogers, AR) as a control protein. Blood glucose was then measured over the next 24 hour period. As a positive control, a separate group of animals were injected subcutaneously with 20 micrograms of Porcine insulin. All animals were kept in the fasting state.

[6] = 20 micrograms injected subcutaneously, fasting 7 week old mice
[7] = fed 1 mg orally, fasting 7 week old mice

Row | Substance | incidence of diabetes (NOD mice [1]; all oral doses tested (10 micrograms, 100 micrograms, 1 mg)) | development of diabetes (NOD mice [1]; fed 1 mg orally (gavage), twice a week until 9 weeks of age, then once a week, diabetic = blood glucose 220 or higher) | blood sugar on 10 representative animals (NOD mice [1]; fed 1 mg, individual non-diabetic animals) [mg/dL] | development of diabetes (NOD mice [1]; fed 10 micrograms orally, same schedule) | blood sugar in animals which developed diabetes (NOD mice [1]; fed 10 micrograms, individual animals) | development of diabetes (NOD mice [1]; fed 100 micrograms orally, same schedule) | blood sugar in animals that became diabetic (NOD mice [1]; fed 100 micrograms, individual animals) | treated animals that failed to develop diabetes (NOD mice [1]; highest oral dose (1 mg)) [%] | inflammatory immune system cells surrounding the pancreas (insulitis) (NOD mice [2]) | beta cell function (NOD mice [3]) | serum glucose concentrations (NOD mice [3]) | prevention of the manifestation of symptoms (hyperglycemia) of Type 1 diabetes (NOD mice [4]) | decrease in blood glucose level (NOD mice [5]; [6]) | period over which the glucose decrease persisted (NOD mice [5]; [6]) [h] | endocrinologic (metabolic) effects (NOD mice [5]; fed 1 mg orally) | blood glucose after feeding (NOD mice [5]; [7])
1 | Porcine insulin | lower incidence of diabetes; also recorded: reduced the numbers of these mice which subsequently went on to develop diabetes | none of the mice went on to develop diabetes; also recorded: no diabetes developed; also recorded: None of the animals developed diabetes | 130 | diabetes developed | 330 mg/dL and 420 mg/dL and 520 mg/dL | diabetes developed | 500 mg/dL and 290 mg/dL and 600 mg/dL and 450 mg/dL | 100 | fewer inflammatory immune system cells surrounding the pancreas | preservation of beta cell function | reduction in serum glucose concentrations to near normal levels | effective in preventing the manifestation of symptoms | approximately 80 mg % | 4 | no endocrinologic (metabolic) effects | no drop in the blood glucose
2 | myelin basic protein |  |  |  |  |  |  |  |  |  |  |  |  |  |  |  | no drop in the blood glucose
